What was measured:
GAAC = target: T1, GAAC (Aspergillus niger, UniProt A8DRH7); assay: aldolase activity in yeast lysate; type: biochemical
T1 construct: codon-optimized, expressed in S. cerevisiae BY4741, lysate
T1 sequence (A8DRH7 1-335): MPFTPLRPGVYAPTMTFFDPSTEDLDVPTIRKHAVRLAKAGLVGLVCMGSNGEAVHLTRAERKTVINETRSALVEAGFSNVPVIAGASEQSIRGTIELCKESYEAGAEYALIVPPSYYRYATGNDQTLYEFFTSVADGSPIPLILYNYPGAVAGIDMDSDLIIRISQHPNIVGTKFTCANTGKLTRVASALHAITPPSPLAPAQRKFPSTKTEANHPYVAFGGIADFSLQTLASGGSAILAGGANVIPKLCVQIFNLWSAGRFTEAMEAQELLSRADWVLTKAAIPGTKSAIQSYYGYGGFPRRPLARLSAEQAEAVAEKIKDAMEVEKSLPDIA

[1] = target: T2, uronate dehydrogenase (UDH) (Pseudomonas syringae group genomosp. 3, UniProt Q888H1); assay: conversion to meso-galactaric acid by UDH-expressing yeast, HPLC; type: cell-based; details: orange peel hydrolysate, GatA co-expressed
T2 construct: genomically integrated, expressed in S. cerevisiae with GatA
T2 sequence (Q888H1 1-275): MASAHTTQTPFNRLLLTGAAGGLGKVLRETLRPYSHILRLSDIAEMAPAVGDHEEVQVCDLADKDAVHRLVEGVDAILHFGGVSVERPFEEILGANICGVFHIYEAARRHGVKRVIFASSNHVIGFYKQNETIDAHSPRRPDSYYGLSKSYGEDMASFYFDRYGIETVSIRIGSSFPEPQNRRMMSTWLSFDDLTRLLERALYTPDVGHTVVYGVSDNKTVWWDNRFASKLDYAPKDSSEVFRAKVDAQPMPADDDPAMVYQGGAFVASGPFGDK

GAR1 = target: T3, GAR1 (Trichoderma reesei, UniProt Q3ZFI7); assay: reductase activity in yeast lysate; type: biochemical
T3 construct: codon-optimized, expressed in S. cerevisiae BY4741, lysate
T3 sequence (Q3ZFI7 1-309): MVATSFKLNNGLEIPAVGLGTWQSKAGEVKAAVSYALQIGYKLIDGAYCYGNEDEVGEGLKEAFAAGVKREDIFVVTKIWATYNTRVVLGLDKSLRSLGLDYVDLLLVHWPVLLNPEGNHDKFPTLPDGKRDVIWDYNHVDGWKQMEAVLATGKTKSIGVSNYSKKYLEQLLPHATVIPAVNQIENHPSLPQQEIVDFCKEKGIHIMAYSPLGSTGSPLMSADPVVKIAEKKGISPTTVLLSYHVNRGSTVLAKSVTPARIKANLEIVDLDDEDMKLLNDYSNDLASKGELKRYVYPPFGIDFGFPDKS

GAAA = target: T4, GAAA (Aspergillus niger, UniProt A8DRH9); assay: reductase activity in yeast lysate; type: biochemical
T4 construct: codon-optimized, expressed in S. cerevisiae BY4741, lysate
T4 sequence (A8DRH9 1-412): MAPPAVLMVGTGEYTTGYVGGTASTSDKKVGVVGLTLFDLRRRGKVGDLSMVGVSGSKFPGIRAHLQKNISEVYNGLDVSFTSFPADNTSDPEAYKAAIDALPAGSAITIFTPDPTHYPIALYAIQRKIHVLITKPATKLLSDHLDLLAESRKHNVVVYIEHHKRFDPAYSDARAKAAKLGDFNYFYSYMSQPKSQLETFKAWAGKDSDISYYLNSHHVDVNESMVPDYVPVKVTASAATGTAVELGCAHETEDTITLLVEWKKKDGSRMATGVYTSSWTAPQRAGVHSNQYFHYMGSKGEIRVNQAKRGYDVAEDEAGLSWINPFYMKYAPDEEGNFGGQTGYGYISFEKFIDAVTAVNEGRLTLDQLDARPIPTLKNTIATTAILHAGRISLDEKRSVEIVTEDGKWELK

SMILES	aldolase activity in yeast lysate (GAAC)	conversion to meso-galactaric acid by UDH-expressing yeast, HPLC [1]	reductase activity in yeast lysate (GAR1)	reductase activity in yeast lysate (GAAA)
O=C(O)C(=O)C[C@H](O)[C@@H](O)CO [2-keto-3-deoxy-L-galactonate]	2-keto-3-deoxy-L-galactonate aldolase from Aspergillus niger (GAAC)	–	–	–
O=C(O)[C@H]1OC(O)[C@H](O)[C@@H](O)[C@H]1O (stereo partly drawn) [D-galUA]	–	conversion of D-galUA to meso-galactaric acid was observed in the UDH and GatA co-expression strain	D-galacturonate reductase from Trichoderma reesei (GAR1)	lower specific activities measured for GAAA compared to GAR1 in cell lysate
